Experimental data published in ChEMBL document CHEMBL2439992, “Fused 3-Hydroxy-3-trifluoromethylpyrazoles Inhibit Mutant Huntingtin Toxicity” (ACS Med Chem Lett, 2013).
Values after ≈ are worked out from the molar mass of the structure shown. Active and inactive are the calls of the source. The rule behind the calls is not given here.

Tests used:
[1] = Kinetic solubility of the compound at pH 7.4; format: physicochemical; settings: buffer, read-out: Kinetic_solubility
[2] = Stability of the compound at pH 3 to 7.4 assessed as dehydration; format: physicochemical; settings: buffer
HEK293 [3] = assay: Inhibition of full-length huntingtin Q138 mutant (unknown origin) expressed in human T-RexTM-293 cells co-expressing CRE-Luc assessed as decrease of CREB-mediated transcription after 72 hrs by luciferase reporter gene based luminescence assay relative to control; format: cell-based
[4] = Inhibition of full-length huntingtin Q138 mutant (unknown origin) expressed in human T-RexTM-293 cells co-expressing CRE-Luc assessed as decrease of CREB-mediated transcription after 72 hrs by luciferase reporter gene based luminescence assay; format: cell-based; settings: HEK293, 72 h
MDCK = assay: Efflux ratio of permeability […] in MDCK cells expressing MDR1 after 120 mins; format: ADME, cell-based, Canis lupus familiaris; settings: dog, 2 h
[5] = Permeability of the compound from apical to basolateral side of MDCK cells expressing MDR1 after 120 mins; format: ADME, cell-based, Canis lupus familiaris; settings: dog, read-out: permeability
[6] = Intrinsic clearance in mouse liver microsomes at 1 uM in presence of NADPH; format: ADME, Microsome; settings: read-out: CLH
[7] = Intrinsic clearance in human liver microsomes at 1 uM in presence of NADPH; format: ADME, Microsome; settings: read-out: CLH
[8] = Cytotoxicity in Sprague-Dawley rat striatal neurons; format: cell-based; settings: neuron
[9] = molecular target: Huntingtin (Rattus norvegicus) (UniProt P51111); assay: Inhibition of wild type huntingtin 171-18Q-mediated cell death in Sprague-Dawley rat striatal neurons at 1 to 30 uM by NeuN-positive cell counting assay
Rattus norvegicus = species on record: Rattus norvegicus; assay: Inhibition of huntingtin 171-82Q mutant-mediated cell death in Sprague-Dawley rat striatal neurons at 10 to 30 uM by NeuN-positive cell counting assay
Mus musculus [10] = assay: Ex vivo antihuntington's disease activity in R6/2 transgenic mouse assessed as decrease of cerebral ventricles size at 3 to 30 mg/kg, po qd measured after 8 weeks by MRI analysis; format: functional, organism-based
Mus musculus [11] = assay: Antihuntington's disease activity in R6/2 transgenic mouse assessed as decrease of cerebral ventricles size at 3 to 30 mg/kg, po qd measured after 8 weeks; format: functional, organism-based
Mus musculus [12] = assay: Antihuntington's disease activity in R6/2 transgenic mouse assessed as prevention of ventricular volume enlargment at 3 to 30 mg/kg, po qd measured after 8 weeks; format: functional, organism-based
Mus musculus [13] = assay: Toxicity in R6/2 transgenic mouse assessed as mortality at 1 to 30 mg/kg, po qd; format: organism-based; design: dose 1-30 mg/kg, route oral; settings: in vivo
Mus musculus [14] = assay: Toxicity in R6/2 transgenic mouse assessed as motor impairment at 1 to 30 mg/kg, po qd; format: organism-based; design: dose 1-30 mg/kg, route oral; settings: in vivo
Salmonella typhimurium = assay: Genotoxicity in Salmonella typhimurium by Ames test; format: toxicity, organism-based; settings: salmonella enterica subsp. enterica serovar typhimurium
Mus musculus [15] = assay: Antihuntington's disease activity in R6/2 transgenic mouse assessed as decrease in body weight at 10 to 30 mg/kg, po qd; format: functional, organism-based
Cytochrome P450 2C9 = Cytochrome P450 2C9 (Homo sapiens, UniProt P11712); assay: Inhibition of CYP2C9 (unknown origin); format: ADME
Cytochrome P450 2C19 = Cytochrome P450 2C19 (Homo sapiens, UniProt P33261); assay: Inhibition of CYP2C19 (unknown origin); format: ADME
Cytochrome P450 1A2 = molecular target: T1, Cytochrome P450 1A2 (Homo sapiens, UniProt P05177); assay: Inhibition of CYP1A2 (unknown origin); format: ADME
T1 sequence (P05177 whole entry): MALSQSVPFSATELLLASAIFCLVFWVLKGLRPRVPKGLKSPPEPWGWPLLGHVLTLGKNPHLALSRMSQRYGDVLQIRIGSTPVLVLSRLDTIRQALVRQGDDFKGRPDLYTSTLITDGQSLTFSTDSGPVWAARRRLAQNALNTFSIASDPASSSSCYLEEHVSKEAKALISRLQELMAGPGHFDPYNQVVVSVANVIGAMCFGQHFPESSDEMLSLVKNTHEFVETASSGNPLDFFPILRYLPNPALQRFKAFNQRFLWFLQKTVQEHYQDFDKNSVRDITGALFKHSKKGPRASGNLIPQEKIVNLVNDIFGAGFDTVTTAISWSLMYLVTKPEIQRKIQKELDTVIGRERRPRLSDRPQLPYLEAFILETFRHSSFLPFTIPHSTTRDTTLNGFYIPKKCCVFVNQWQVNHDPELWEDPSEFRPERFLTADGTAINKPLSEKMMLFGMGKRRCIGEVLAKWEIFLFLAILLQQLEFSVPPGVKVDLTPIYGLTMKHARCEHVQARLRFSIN

Cytochrome P450 2D6 = Cytochrome P450 2D6 (Homo sapiens, UniProt P10635); assay: Inhibition of CYP2D6 (unknown origin); format: ADME
Cytochrome P450 3A4 [16] = molecular target: T2, Cytochrome P450 3A4 (Homo sapiens, UniProt P08684); assay: Inhibition of CYP3A4 (unknown origin) using nifedipine as substrate; format: ADME
[17] = molecular target: Voltage-gated inwardly rectifying potassium channel KCNH2 (Homo sapiens, UniProt Q12809); assay: Inhibition of human ERG up to 100 uM
Cytochrome P450 3A4 [18] = molecular target: T2, Cytochrome P450 3A4; assay: Inhibition of CYP3A4 (unknown origin) using testosterone as substrate; format: ADME
[19] = Ratio of drug level in brain to plasma in CD1 mouse at 5 mg/kg, po and iv; format: ADME, organism-based; design: dose 5 mg/kg, route oral; settings: read-out: BPR
PC-12 [20] = assay: Cytoprotective activity in rat PC12 cells after 72 hrs by LDH release assay; format: ADME, cell-based; settings: pc-12, 72 h
PC-12 [21] = assay: Inhibition of GFP tagged-exon-1 fragment of huntingtin 74Q mutant (unknown origin) expressed in rat PC12 cells assessed as protection against doxycycline-induced cell death after 72 hrs by LDH release assay; format: cell-based; settings: Homo sapiens
HEK293 [22] = assay: Inhibition of full-length huntingtin Q138 mutant (unknown origin) expressed in human T-RexTM-293 cells co-expressing CRE-Luc assessed as decrease of CREB-mediated transcription up to 50 uM after 72 hrs by luciferase reporter gene based luminescence assay; format: cell-based

Sequence of Huntingtin (Rattus norvegicus) (P51111 whole entry): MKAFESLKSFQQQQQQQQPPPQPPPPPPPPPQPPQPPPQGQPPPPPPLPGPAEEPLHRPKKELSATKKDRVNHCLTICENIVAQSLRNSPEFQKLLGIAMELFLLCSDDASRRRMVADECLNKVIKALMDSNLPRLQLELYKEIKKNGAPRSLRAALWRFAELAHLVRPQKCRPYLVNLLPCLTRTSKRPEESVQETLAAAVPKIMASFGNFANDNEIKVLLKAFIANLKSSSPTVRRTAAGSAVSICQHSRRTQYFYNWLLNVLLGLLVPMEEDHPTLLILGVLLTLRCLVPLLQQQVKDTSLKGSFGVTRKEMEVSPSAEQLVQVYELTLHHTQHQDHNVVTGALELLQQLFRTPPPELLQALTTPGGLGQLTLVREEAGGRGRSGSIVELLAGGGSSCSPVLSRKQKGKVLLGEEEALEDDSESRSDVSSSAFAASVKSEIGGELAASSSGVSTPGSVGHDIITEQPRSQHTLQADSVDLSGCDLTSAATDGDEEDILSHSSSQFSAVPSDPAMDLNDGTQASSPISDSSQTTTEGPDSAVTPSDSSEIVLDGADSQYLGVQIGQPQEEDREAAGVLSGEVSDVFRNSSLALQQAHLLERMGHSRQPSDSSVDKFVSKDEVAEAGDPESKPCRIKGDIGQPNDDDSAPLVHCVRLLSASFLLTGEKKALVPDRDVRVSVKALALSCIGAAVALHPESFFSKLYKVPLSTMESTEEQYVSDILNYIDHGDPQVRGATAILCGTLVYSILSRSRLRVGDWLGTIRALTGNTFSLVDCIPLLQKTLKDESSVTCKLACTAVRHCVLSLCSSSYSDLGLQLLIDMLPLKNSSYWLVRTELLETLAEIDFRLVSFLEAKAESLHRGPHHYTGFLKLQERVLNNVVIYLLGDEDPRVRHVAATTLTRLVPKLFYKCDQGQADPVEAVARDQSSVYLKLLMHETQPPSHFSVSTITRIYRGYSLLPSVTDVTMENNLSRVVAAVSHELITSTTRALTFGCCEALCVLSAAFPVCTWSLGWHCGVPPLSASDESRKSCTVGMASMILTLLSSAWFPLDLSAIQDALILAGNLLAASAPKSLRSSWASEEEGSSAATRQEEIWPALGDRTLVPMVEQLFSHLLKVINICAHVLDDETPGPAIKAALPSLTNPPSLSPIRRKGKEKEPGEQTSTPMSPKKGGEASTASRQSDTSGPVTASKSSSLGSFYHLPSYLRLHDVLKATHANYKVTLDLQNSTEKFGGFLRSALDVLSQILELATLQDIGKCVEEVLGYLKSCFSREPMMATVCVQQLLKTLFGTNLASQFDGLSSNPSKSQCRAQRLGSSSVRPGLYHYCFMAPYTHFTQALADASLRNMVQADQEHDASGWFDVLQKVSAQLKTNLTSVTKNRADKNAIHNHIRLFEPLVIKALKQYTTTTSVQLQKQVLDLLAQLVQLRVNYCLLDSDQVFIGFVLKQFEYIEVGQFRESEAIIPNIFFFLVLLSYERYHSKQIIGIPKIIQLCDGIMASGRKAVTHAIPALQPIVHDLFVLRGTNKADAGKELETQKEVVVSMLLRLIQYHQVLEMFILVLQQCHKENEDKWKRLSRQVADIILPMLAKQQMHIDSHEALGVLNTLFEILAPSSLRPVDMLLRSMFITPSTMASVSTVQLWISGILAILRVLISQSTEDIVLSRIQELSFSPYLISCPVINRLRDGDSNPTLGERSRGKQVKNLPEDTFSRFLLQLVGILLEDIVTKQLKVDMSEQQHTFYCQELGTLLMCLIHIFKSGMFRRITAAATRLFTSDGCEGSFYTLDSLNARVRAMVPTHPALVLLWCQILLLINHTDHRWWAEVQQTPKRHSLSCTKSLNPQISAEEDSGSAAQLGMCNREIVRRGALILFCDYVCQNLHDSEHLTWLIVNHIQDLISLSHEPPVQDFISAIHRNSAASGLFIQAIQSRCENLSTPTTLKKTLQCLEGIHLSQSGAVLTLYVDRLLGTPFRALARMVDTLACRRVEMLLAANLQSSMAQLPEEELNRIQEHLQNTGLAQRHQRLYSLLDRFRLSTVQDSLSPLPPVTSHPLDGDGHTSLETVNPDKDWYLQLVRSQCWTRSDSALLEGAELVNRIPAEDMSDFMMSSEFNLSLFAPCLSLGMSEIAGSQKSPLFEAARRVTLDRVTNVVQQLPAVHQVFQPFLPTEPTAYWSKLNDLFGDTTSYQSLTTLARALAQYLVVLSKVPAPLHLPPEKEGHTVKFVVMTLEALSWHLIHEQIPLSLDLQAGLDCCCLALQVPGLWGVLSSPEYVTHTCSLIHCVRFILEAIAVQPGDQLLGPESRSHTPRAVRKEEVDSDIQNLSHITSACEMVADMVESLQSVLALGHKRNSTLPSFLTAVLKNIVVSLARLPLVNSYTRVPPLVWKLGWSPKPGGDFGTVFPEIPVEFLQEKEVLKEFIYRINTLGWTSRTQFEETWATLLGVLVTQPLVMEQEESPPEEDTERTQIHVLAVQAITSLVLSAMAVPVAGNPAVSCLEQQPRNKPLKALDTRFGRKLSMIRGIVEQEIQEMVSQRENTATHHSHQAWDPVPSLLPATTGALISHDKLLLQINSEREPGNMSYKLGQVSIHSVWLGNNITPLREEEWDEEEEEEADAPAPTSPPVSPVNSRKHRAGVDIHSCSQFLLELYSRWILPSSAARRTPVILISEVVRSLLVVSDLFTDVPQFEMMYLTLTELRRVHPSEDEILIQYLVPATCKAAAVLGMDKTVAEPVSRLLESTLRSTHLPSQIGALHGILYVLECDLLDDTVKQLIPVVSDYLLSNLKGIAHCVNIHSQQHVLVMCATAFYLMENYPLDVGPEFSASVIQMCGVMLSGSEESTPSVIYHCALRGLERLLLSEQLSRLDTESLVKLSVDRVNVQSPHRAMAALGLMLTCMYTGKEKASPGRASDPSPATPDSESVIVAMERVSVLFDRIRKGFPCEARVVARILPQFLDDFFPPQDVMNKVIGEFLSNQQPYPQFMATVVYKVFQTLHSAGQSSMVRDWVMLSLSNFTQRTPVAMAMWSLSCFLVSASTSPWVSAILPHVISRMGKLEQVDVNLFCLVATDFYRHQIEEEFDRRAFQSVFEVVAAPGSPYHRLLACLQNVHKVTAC
T2 sequence (P08684 whole entry): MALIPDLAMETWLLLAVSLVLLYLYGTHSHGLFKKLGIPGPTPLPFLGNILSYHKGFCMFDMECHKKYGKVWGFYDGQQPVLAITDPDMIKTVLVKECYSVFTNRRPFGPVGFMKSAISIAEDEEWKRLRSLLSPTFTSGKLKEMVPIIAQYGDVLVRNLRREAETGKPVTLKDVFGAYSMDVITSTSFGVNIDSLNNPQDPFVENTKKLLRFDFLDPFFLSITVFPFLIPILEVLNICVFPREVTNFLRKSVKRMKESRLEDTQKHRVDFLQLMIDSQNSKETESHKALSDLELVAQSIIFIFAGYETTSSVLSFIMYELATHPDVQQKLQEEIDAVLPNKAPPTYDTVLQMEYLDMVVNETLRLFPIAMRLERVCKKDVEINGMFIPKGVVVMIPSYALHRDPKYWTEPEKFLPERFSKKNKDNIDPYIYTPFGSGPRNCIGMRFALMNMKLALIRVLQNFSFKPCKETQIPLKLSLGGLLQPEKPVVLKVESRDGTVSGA
Sequence of Cytochrome P450 2D6 (P10635 whole entry): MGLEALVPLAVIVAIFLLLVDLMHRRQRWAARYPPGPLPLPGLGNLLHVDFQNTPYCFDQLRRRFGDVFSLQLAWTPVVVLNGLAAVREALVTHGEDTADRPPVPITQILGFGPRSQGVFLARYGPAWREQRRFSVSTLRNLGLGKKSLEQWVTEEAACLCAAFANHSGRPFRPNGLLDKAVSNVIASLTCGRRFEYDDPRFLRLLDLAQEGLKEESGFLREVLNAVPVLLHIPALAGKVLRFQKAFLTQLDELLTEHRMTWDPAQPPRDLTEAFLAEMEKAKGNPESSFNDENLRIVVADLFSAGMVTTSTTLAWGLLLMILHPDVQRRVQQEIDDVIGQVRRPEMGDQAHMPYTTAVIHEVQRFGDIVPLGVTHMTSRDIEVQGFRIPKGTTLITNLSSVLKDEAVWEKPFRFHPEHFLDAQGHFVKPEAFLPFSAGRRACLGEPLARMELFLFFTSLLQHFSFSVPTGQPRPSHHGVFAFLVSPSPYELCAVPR
Sequence of Cytochrome P450 2C19 (P33261 whole entry): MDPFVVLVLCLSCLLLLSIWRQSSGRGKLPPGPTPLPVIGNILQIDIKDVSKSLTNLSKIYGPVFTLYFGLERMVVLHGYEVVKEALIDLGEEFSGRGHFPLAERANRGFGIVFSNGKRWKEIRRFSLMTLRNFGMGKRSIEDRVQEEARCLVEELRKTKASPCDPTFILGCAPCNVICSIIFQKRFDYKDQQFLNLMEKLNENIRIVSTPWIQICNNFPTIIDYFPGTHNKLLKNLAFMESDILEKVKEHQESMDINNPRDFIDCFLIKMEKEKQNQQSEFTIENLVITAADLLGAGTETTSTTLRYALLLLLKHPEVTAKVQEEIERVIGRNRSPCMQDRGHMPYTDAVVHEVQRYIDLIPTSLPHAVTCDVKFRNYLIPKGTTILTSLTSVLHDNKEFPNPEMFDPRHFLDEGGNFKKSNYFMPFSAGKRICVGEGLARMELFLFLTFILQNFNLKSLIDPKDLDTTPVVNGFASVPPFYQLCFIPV
Sequence of Cytochrome P450 2C9 (P11712 whole entry): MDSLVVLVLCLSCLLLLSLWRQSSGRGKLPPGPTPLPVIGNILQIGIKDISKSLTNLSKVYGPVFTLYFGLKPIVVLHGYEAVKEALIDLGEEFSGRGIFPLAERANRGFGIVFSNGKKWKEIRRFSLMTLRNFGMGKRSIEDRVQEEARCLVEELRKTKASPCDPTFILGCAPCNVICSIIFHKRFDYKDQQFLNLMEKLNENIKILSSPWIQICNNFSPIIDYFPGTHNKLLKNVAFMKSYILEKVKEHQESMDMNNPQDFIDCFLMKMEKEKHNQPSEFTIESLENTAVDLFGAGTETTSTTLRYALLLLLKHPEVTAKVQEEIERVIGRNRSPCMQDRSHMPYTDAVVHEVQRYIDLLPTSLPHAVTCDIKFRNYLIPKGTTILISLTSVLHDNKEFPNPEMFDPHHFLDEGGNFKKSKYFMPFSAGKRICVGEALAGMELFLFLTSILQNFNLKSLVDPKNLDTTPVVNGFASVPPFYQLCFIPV

Row | solubility kinetic [1] | Stability [2] | EC50 [4] | Ratio (MDCK) | Papp A→B at 2 h [5] | microsomal CLint at 1 µM [6] | microsomal CLint at 1 µM [7] | Compound | Emax (HEK293 [3]) | further results
1 | 72 µM (≈ 21.7 µg/mL) | Stable | 28.7 µM |  |  |  |  | O=C(c1ccc[nH]1)N1N=C2CCCC[C@@H]2[C@@]1(O)C(F)(F)F (racemic) | 20% | 
2 | 56 µM (≈ 19.1 µg/mL) | Stable | 10 µM |  |  |  |  | Cc1ccc(C(=O)N2N=C3CCCCC[C@@H]3[C@@]2(O)C(F)(F)F)cn1 (racemic) | 30% | 
3 | 212 µM (≈ 69.4 µg/mL) | Stable | 3.7 µM | 1.5 | 43.4 ×10⁻⁶ cm/s | 174 µL/min/mg | 19.2 µL/min/mg | Cc1ccc(C(=O)N2N=C3CCCC[C@@H]3[C@@]2(O)C(F)(F)F)cn1 (racemic) | 43% | 
4 | 30 µM (≈ 9.46 µg/mL) | Stable | 14.2 µM |  |  |  |  | O=C(c1ccc[nH]1)N1N=C2CCCCC[C@@H]2[C@@]1(O)C(F)(F)F (racemic) | 6% | 
5 | 96 µM (≈ 31.4 µg/mL) | Stable | 10.8 µM | 1 | 36.2 ×10⁻⁶ cm/s | 170 µL/min/mg | 71.9 µL/min/mg | O=C(c1ccncc1)N1N=C2CCCCC[C@@H]2[C@@]1(O)C(F)(F)F (racemic) | 34% | 
6 | 205 µM (≈ 67.9 µg/mL) | Stable | 6.6 µM | 1.6 | 17.2 ×10⁻⁶ cm/s | 22.9 µL/min/mg | < 5 µL/min/mg | Cn1cc(N)c(C(=O)N2N=C3CCCC[C@@H]3[C@@]2(O)C(F)(F)F)n1 (racemic) | 30% | 
7 | 187 µM (≈ 59 µg/mL) | Stable | 6.1 µM | 1.1 | 29.2 ×10⁻⁶ cm/s | 16.6 µL/min/mg | 15.7 µL/min/mg | O=C(c1cccnc1)N1N=C2CCOC[C@@H]2[C@@]1(O)C(F)(F)F (racemic) | 40% | 
8 | 114 µM (≈ 45.1 µg/mL) | Stable | 4.9 µM | 1 | 39.3 ×10⁻⁶ cm/s | 101 µL/min/mg | 17.7 µL/min/mg | Cn1cc(Br)c(C(=O)N2N=C3CCCC[C@@H]3[C@@]2(O)C(F)(F)F)n1 (racemic) | 29% | Activity [8]: Non-toxic; inhibition [9]: Active; inhibition (Rattus norvegicus): Active
9 | 101 µM (≈ 34.6 µg/mL) | Stable | 5.2 µM | 0.8 | 31.6 ×10⁻⁶ cm/s | > 700 µL/min/mg | 352 µL/min/mg | Cc1cccc(C(=O)N2N=C3CCCC[C@@H]3[C@@]2(O)C(F)(F)F)c1O (racemic) | 32% | 
10 | 111 µM (≈ 43.8 µg/mL) | Stable | 22.4 µM |  |  |  |  | O=C(c1cncc(Br)c1)N1N=C2CCOC[C@@H]2[C@@]1(O)C(F)(F)F (racemic) | 24% | 
11 | 182 µM (≈ 65.4 µg/mL) | Stable | 19.9 µM |  |  |  |  | CCNc1cn(C)nc1C(=O)N1N=C2CCCC[C@@H]2[C@@]1(O)C(F)(F)F (racemic) | 37% | 
12 | 153 µM (≈ 48.7 µg/mL) | Stable | 17.1 µM | 1.1 | 29.1 ×10⁻⁶ cm/s | 21.1 µL/min/mg | 6.1 µL/min/mg | Nc1nc(C(=O)N2N=C3CCCC[C@@H]3[C@@]2(O)C(F)(F)F)co1 (racemic) | 21% | 
13 |  | Stable | 30 µM |  |  |  |  | Cc1nn(C)c(Cl)c1S(=O)(=O)N1N=C2CCOC[C@@H]2[C@@]1(O)C(F)(F)F (racemic) | -17% | 
14 | 5 µM (≈ 1.58 µg/mL) |  | > 50 µM |  |  |  |  | CC1=NN(C(=O)c2cccc(C)c2O)C(O)(C(F)(F)F)C1C (centres undefined) |  | inhibition (HEK293 [22]): inactive
15 | 111 µM (≈ 45.6 µg/mL) | Stable | 1.8 µM |  |  |  |  | CCOC(=O)c1c[nH]nc1S(=O)(=O)N1N=C2CCCC[C@@H]2[C@@]1(O)C(F)(F)F (racemic) | 34% | 
16 | 156 µM (≈ 55 µg/mL) | Stable | 1.7 µM | 0.9 | 12.8 ×10⁻⁶ cm/s | 28.3 µL/min/mg | 37.6 µL/min/mg | Cn1cnc(S(=O)(=O)N2N=C3CCCC[C@@H]3[C@@]2(O)C(F)(F)F)c1 (racemic) | 41% | Activity [8]: Non-toxic; inhibition [9]: Active; inhibition (Rattus norvegicus): Active
17 | 98 µM (≈ 30.7 µg/mL) | Stable | 9.1 µM | 1.1 | 36 ×10⁻⁶ cm/s | 54.6 µL/min/mg | 21.4 µL/min/mg | O=C(c1ccncc1)N1N=C2CCCC[C@@H]2[C@@]1(O)C(F)(F)F (racemic) | 42% | Activity [8]: Non-toxic; inhibition [9]: Active; inhibition (Rattus norvegicus): Active

Row | Compound | solubility kinetic [1] | Stability [2] | EC50 [4] | Ratio (MDCK) | Papp A→B at 2 h [5] | microsomal CLint at 1 µM [6] | microsomal CLint at 1 µM [7] | Emax (HEK293 [3]) | further results
18 | Nc1nc(C(=O)N2N=C3CCCC[C@@H]3[C@@]2(O)C(F)(F)F)cs1 (racemic) | 96 µM (≈ 32.1 µg/mL) | Stable | 1.8 µM | 1.1 | 31 ×10⁻⁶ cm/s | 27.6 µL/min/mg | 13.6 µL/min/mg | 44% | Activity (Mus musculus [10]): Active; Activity (Mus musculus [11]): Active; Activity (Mus musculus [12]): Active; Activity (Mus musculus [13]): Non-toxic; Activity (Mus musculus [14]): Non-toxic; Activity (Salmonella typhimurium): Non-toxic; Activity (Mus musculus [15]): Active; INH (Cytochrome P450 2C9): > 30 µM; INH (Cytochrome P450 2C19): 24.4 µM; INH (Cytochrome P450 1A2): > 30 µM; INH (Cytochrome P450 2D6): > 30 µM; INH (Cytochrome P450 3A4 [16]): > 30 µM; inhibition (INH) [17]: Not Active; INH (Cytochrome P450 3A4 [18]): > 30 µM; Activity [8]: Non-toxic; Kp [19]: 0.34; Activity (PC-12 [20]): Non-toxic; inhibition [9]: Active; inhibition (Rattus norvegicus): Active; inhibition (PC-12 [21]): Active
